Reference: patent US6469062B2, “Use of 15-keto-prostaglandins in promoting bile secretion” (Sucampo A.G., priority 2000, dated 2002)

Assays:
[1] = tested on: normal rats; assay: Test Example 1: bile flow in normal rats after oral administration; format: in vivo, rat; conditions: 100 μg/kg orally 3 times a day for 7 days; bile collected on day 8, 1 to 2 hours after cannulation; vs vehicle
Method: Male Wister rats were used. 100 μg/kg of test compound 1 (13,14-dihydro-15-keto-16, 16-difluoro-18(S)-methyl-prostaglandin E1) was administered orally to the test group animals (n=8) 3 times a day for 7days. To the control group animals (n=7), the same volume of the vehicle, i.e. 0.01% polysorbate 80, 0.5% ethanol in distilled water was administered. At the next day after the final administration (day 8), the common bile duct of the respective rat was cannulated under ether anesthesia and the rat was placed in ball man gauge for 1 hour to recover from anesthesia. The bile discharged over one hour time period, i.e. from 1 to 2 hours of the cannulation, was collected and determined bile flow.

[2] = tested on: perfused rat liver; assay: Test Example 2: bile flow of isolated perfused rat liver
Method: Male Wister rats were used. Each rat was cannulated for collection of bile under pentobarbital sodium anesthesia. A catheter was inserted and fixed in the portal vein. Krebs-Ringer solution saturated with 95% O2 and 5% CO2 (pH 7.4, 37° C.) was infused via the catheter at a constant flow rate of 4.0 ml/min/g liver weight by means of peristaltic pump to perfuse the liver. The liver was removed under perfusion. In case where the bile secretion was necessary to maintain being the physiological level, the liver was perfused with Krebs-Ringer solution supplemented with sodium taurocolate (30 μmol/l). For the test group animals, the test compound 1 was added to the Krebs-Ringer solution. Bile of the each animals including test and control groups was collected in every 5 minutes.

[3] = tested on: anoxia/re-oxygenation perfused rat liver; assay: Test Example 3: bile flow recovery of anoxia/re-oxygenation perfused rat liver; conditions: 10 μM added at re-oxygenation after 20 minutes of anoxia; vs vehicle
Method: Isolated perfused liver sample was prepared by the same manner as described in the test example 2. Each livers of test and control groups was perfused with Krebs-Ringer solution saturated with 95% N2 and 5% CO2 for 20 minutes to expose the liver oxygen-free condition. After that, Krebs-Ringer solution saturated with 95% O2 and 5% CO2 was perfused to re-oxygenize the liver. At the re-oxygenization step, 10 μM of the test compound 1 was added to the Krebs-Ringer solution for the test group.

[4] = tested on: rat isolated liver; assay: Test Example 4: bile flow of rat isolated liver, compound added to preservation solution; conditions: 10 μM added to U-W preservation solution, 4° C., 16 hours storage; 40 minutes reperfusion
Source text: Male Wister Rats were anesthetized with pentobarital sodium and hepatic-portal region was exposed by abdominal midline incision. The common bile duct was cannulated and the portal stem was inserted with a 19 gauge surflo® needle equipped with a three way stopcock. […] Treitz' ligament, the ligament around the liver, and diaphragm were cut and the liver was removed to the outside of the body and subjected to extracoporeal perfusion. The liver was subjected to a fifteen minutes of pre-perfusion until its oxygen consumption achieved to constant and then, the perfusate was exchanged with University of Wisconsin solution (U-W solution) at 4° C. Immediately after finish of the exchange, the liver connected with the three-way stopcock was removed from the perfusion cycle and the inlet was clamped. Then the liver was putted into the U-W solution at the same temperature and stored for 16 hours. […] During the reperfusion period, bile flow was determined every 5 minutes.
In the above perfusion protocol, 10 μM of test compound 1 or test compound 2 (13,14-dihydro-15-keto-16,16-difluoro-17(R)-methyl-prostaglandin E1) were added to the U-W solution to determine the effects of these drugs on recovery of bile flow.

[5] = tested on: rat isolated liver; assay: Test Example 5: bile flow of cold preserved rat isolated liver, compound added to rinse solution; conditions: added to Krebs-Ringer rinse solution perfused for 40 minutes after 16-hour cold storage
Method: The perfusion protocol of the Test Example 4 was repeated except for the test compound 1 and the test compound 2 were added to the Krebs-Ringer solution, i.e. the rinse solution perfused for 40 minute's to determine the recovery of the bile flow.

[6] = tested on: dogs and cats; conditions: cited from earlier work
[7] = tested on: porcine of which liver was replaced by transplantation; conditions: intraportal administration; cited from earlier work
[8] = tested on: implanted liver; conditions: added to liver preservation solution; rat liver transplantation model; cited from earlier work

CC[C@H](C)CC(F)(F)C(=O)CC[C@H]1[C@H](O)CC(=O)[C@@H]1CCCCCCC(=O)O [test compound 1, 13,14-dihydro-15-keto-16,16-difluoro-18(S)-methyl-prostaglandin E1]
normal rat bile flow [1]: significantly increased | bile flow of the perfused rat liver ([2]; compound added to Krebs-Ringer perfusate): significantly increased bile flow | cholagogic effect, dose dependence ([2]; under the presence of bile acid (sodium taurocolate 30 μmol/l)): dose dependent cholagogic effect | bile flow, presence (TC(+)) or absence (TC(−)) of bile acid ([2]; with or without bile acid in the perfusate): increased the bile flow irrespective of the presence or absence of bile acid | bile flow recovery after anoxia/re-oxygenation [3]: significantly increased the bile flow | bile flow at the reperfusion step [4]: increased the bile flow at the reperfusion step significantly | bile flow in reperfusion of cold preserved rat liver [5]: significantly increased

CCCCC[C@H](O)/C=C/[C@@H]1[C@H]2C/C(=C/CCCC(=O)O)O[C@H]2C[C@H]1O [prostacyclin]
cholagogic effect [6]: cholagogic effect

CCCCC[C@H](O)/C=C/[C@@H]1[C@@H](C/C=C\CCCC(=O)O)[C@@H](O)C[C@H]1O [PGF2a]
cholagogic effect [6]: cholagogic effect

CCCC(C)C(F)(F)C(=O)CCC1C(O)CC(=O)C1CCCCCCC(=O)O [test compound 2, 13,14-dihydro-15-keto-16,16-difluoro-17(R)-methyl-prostaglandin E1]
bile flow at the reperfusion step [4]: increased the bile flow at the reperfusion step significantly | bile flow in reperfusion of cold preserved rat liver [5]: significantly increased

CCCCC[C@H](O)/C=C/[C@H]1C=CC(=O)[C@@H]1CCCCCCC(=O)O [PGA1]
cholagogic effect [6]: cholagogic effect

CCCCC[C@H](O)/C=C/[C@H]1[C@H](O)CC(=O)[C@@H]1C/C=C\CCCC(=O)O [PGE2]
cholagogic effect [6]: cholagogic effect

CCCCC[C@H](O)/C=C/[C@H]1[C@H](O)CC(=O)[C@@H]1CCCCCCC(=O)O [PGE1, prostaglandin E1]
cholagogic effect [6]: cholagogic effect | bile flow [7]: increased the bile flow

CCCC[C@H](C)C[C@H](O)/C=C/[C@@H]1C2CC(CCCCC(=O)O)=CC2C[C@H]1O (stereo partly shown) [TEI-9063]
bile producing activity of the implanted liver [8]: improved bile producing activity
